The record followed here is article PMC5889666 (Proceedings of the National Academy of Sciences of the …, 2018).

Series [1] has as its target T1, FadD (Escherichia coli, UniProt P69451).
T1 sequence (P69451 1-561): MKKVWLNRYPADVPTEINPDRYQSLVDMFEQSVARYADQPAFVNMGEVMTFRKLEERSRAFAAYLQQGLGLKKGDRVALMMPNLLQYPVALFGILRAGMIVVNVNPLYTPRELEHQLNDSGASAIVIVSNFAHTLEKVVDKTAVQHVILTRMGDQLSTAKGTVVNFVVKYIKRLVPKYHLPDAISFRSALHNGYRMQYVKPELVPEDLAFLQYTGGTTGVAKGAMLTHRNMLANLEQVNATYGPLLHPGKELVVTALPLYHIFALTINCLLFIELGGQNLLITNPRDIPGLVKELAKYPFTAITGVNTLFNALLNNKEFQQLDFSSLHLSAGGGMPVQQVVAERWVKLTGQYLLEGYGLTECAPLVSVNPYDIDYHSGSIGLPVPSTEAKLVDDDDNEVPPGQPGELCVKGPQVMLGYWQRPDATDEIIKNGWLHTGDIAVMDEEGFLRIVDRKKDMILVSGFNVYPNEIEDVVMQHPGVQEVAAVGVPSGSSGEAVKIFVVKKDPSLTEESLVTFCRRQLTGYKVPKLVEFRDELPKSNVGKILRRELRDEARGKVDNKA
Briefly: in vitro acyl-CoA synthesis, product by LC-MS. Format: biochemical.

The target in series [2] is T2, PlsB (Escherichia coli, UniProt P0A7A7).
T2 sequence (P0A7A7 2-807): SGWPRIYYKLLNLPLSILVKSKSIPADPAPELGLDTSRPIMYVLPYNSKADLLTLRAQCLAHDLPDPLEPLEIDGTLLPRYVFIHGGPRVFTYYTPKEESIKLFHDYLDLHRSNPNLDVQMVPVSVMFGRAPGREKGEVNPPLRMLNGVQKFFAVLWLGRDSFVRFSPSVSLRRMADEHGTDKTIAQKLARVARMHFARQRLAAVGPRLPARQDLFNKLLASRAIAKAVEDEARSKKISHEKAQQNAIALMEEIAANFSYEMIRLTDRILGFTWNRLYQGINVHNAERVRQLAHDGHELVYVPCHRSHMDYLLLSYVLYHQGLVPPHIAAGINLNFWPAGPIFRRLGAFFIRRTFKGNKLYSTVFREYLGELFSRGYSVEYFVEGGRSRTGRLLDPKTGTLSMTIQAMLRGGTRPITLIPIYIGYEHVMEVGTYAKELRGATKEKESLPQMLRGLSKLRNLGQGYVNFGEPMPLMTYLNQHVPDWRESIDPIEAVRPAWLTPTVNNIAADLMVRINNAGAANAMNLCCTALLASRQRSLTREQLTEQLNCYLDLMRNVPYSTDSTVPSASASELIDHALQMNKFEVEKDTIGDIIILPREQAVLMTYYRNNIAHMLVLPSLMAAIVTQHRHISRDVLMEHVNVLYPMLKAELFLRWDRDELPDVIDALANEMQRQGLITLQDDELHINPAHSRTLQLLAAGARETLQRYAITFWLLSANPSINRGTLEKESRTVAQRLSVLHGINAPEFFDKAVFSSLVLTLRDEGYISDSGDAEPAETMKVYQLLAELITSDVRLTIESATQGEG
The series is described as follows: in vitro lyso-phosphatidic acid synthesis, product by LC-MS. Format: biochemical. The settings on record: co-substrate acyl-CoA made from oleic acid and CoA by FadD.

Substrate in series [3]: O=P(O)(O)OC[C@@H](O)CO
Briefly: purified protein. The settings on record: co-substrate GGPP.

Substrate in series [4]: O=P(O)(O)OC[C@H](O)CO
The series is described as follows: purified protein. The settings on record: co-substrate GGPP.

As to `CC(C)(COP(=O)(O)OP(=O)(O)OC[C@H]1O[C@@H](n2cnc3c(N)ncnc32)[C@H](O)[C@@H]1OP(=O)(O)O)[C@@H](O)C(=O)NCCC(=O)NCCS` [CoA], the “in vitro acyl-CoA synthesis, product by LC-MS” value in series [1] (co-substrate oleic acid) is “in vitro condensation of oleic acid and CoA to yield acyl-CoA”.
Turning to `O=P(O)(O)OC[C@H](O)CO` [G3P], the “in vitro lyso-phosphatidic acid synthesis, product by LC-MS” value in series [2] was “LPA synthesis was observed only in the presence of G3P”.
In the case of `CCCCCCCC/C=C\CCCCCCCC(=O)O` [oleic acid], in series [1] (co-substrate CoA), the “in vitro acyl-CoA synthesis, product by LC-MS” value is “in vitro condensation of oleic acid and CoA to yield acyl-CoA”.

B1: GGGPS (Methanococcus maripaludis S2) (protein)
chain: MQIKIGEIESKLNKIIEEEGAAYFVLIDPDEKNYREIANHVKDYADAIIIGGSIGIINLDEVTKDIKEITGLPIILFPGNVDGVTKEADAVFFMSLMNSKNTYWNMTAPTLGALTIKKYGLETLPMAYLGIEPISKTAVGFVGEVNEIPQKKPEIAGLYSLSASYFGMRWAYLEAGSGAEYPVSNEMVGISKKLSGINIIVGGGIRTPEVAYEKVMSGADVIVTGTLTEKDPQAVVEMKKAIKKAGLDKLKMLSKK
Turning to B1, the Km in series [3] amounted to 5.8 ± 1.6 µM; in series [4] it was 46.7 ± 6 µM.
